Results on 11 compounds are retold here after publication PMC7734623 (Antiviral chemistry & chemotherapy, 2012).

By EC50 is commonly meant the midpoint of the concentration-response curve. As usually defined, the EC90 is the concentration needed for an effect of 90%.

In brackets after ≈: the same amount, converted by molar mass. Counter-ions that a name gives are not always drawn. Like-named read-outs stand apart in the source and are kept apart here.

In data set [1] the test system is severe acute respiratory syndrome (SARS) coronavirus (strain Urbani). As to the kind of experiment: microbe, parasite or virus in culture. The class given is cell-based.
Data set [2] is described as follows: in vitro. The following applies: African green monkey.
For a further data set, the system named is HIV-1LAI. As to the kind of experiment: HIV-1 replication reverse transcriptase assay in PBMC. The class given is cell-based, HIV type-1. The following applies: for anti-HIV-1 activity (in words): HIV-1LAI in human PBMC.
Data set [3] in a line: in vitro. As to conditions: human.
The subject of data set [4] is primary human peripheral blood mononuclear cells.
Data set [5] shares this test system. As to the kind of experiment: Cytotoxicity on PBMCs. The following applies: for CC50: experiment 1, PBMC.
The subject of data set [6] is Vero 76 African green monkey kidney epithelial cells.
The subject of data set [7] is MA-104 embryonic African green monkey kidney epithelial cells.
Data set [8] concerns A/California/07/2009 (pandemic swine-origin H1N1). As to the kind of experiment: microbe, parasite or virus in culture. In kind it is cell-based, Influenza A virus (H1N1).
The nature of data set [9]: Hydrolytic stability of DMSO stock solution under freezing–. The following applies: multiple freezing–(re-thawing) cycles.
Data set [10] relates to Madin–Darby canine kidney (MDCK) cells. The following applies: A/duck/Minnesota/1525/81 test.
The next data set relates to B/Florida/4/2006. Description: microbe, parasite or virus in culture. The class given is cell-based, Influenza B virus.
For data set [11], the system named is A/Perth/16/2009 (seasonal H3N2). As to the kind of experiment: microbe, parasite or virus in culture. The class given is cell-based, Influenza A virus (H3N2).
The test system of data set [12] is A/Vietnam/1203/2004 (highly pathogenic avian influenza H5N1). As to the kind of experiment: microbe, parasite or virus in culture. In kind it is cell-based, Influenza A virus (H5N1 highly pathogenic).
The test system of data set [13] is human parainfluenza virus type 3 (isolate 14702). As to the kind of experiment: microbe, parasite or virus in culture. In kind it is cell-based.
The subject of data set [14] is A/duck/Minnesota/1525/81 (low pathogenic avian influenza H5N1). Description: microbe, parasite or virus in culture. The class given is cell-based, Influenza A virus (H5N1 low pathogenic).
Data set [15] can be described thus: in vitro. As to conditions: dog.
The nature of data set [16]: in vitro. As to conditions: African green monkey. This is another data set of the same source.
[17] abbreviates: Human immunodeficiency virus 1, PBMC, experiment 1, PBMC, 9: fresh DMSO stock.
Setting [18] is: Human immunodeficiency virus 1, PBMC, experiment 2, PBMC, 9: fresh DMSO stock.
[19] abbreviates: experiment 1, PBMC, 9: fresh DMSO stock.
The mark [20] stands for this setting: experiment 1, PBMC, RT activity in supernatant, 9: fresh DMSO stock.
Setting [21] is: experiment 2, PBMC, 9: fresh DMSO stock.
[22] abbreviates: experiment 1, DMSO stock after second FRC.

Consider `CC(C)C[C@H](NC(=O)OCc1ccccc1)C(=O)NC(CCC(=O)N(C)C)C(=O)CF` (mixture of isomers) [EP128533, (4RS)-4-[N-(benzyloxycarbonyl)-L-leucylamino]-6-fluoro-5-oxohexanoic acid N,N-dimethylamide, reference compound], for which the response in data set [1] (Severe acute respiratory syndrome-related coronavirus, Vero 76) was half-maximal at 1.3 µg/mL (EC50). Besides, the CC50 in the data set “in vitro [2]” is over 100 µg/mL.

For `NC12CC3CC(CC(C3)C1)C2` [1 ×HCl, 1-Adamantanammonium chloride, reference compound], in the data set with HIV-1LAI, the “anti-HIV-1 activity (in words)” value is on record as “did not show any anti-HIV-1 activity”. In the data set with HIV-1LAI (setting [17]), this compound had an EC90 of over 100 µM. For the same compound, in the data set on HIV-1LAI (experiment 1), the “SI50 (selectivity index CC50/EC50)” value is over 1.1. The same compound had a CC50 in the data set “in vitro [3]” of over 100 µM.

For the compound `Cc1cn([C@H]2C[C@H](N=[N+]=[N-])[C@@H](CO)O2)c(=O)[nH]c1=O` [AZT, 3′-azido-3′-deoxythymidine, reference compound], the CC50 (in [4] (human); in “in vitro [3]”) was over 100 µM in each case. Further, the EC90 with HIV-1LAI (setting [17]) worked out at 0.031 µM; in the data set on HIV-1LAI (setting [18]) it was 0.047 µM. The EC50 in the data set with HIV-1LAI (setting [18]) was found to be 0.0091 µM. In addition, the “SI50 (selectivity index CC50/EC50)” value was >22,727 in the data set on HIV-1LAI (experiment 1) and >10,989 with HIV-1LAI (experiment 2).

Compound `CC(=NC12CC3CC(CC(C3)C1)C2)c1ccc(F)cc1` [Compound 4, 1-(4-Fluorophenyl)ethanone – tricyclo[3.3.1.1^3,7]dec-1-ylazanylidene (1:1)] showed a CC50 in [4] of over 100 µM. In the data set with HIV-1LAI, the “anti-HIV-1 activity (in words)” value is on record as “did not show any anti-HIV-1 activity”. In the data set with HIV-1LAI (setting [19]), this compound showed an EC90 of over 100 µM. Also, the EC50 in the data set on HIV-1LAI (setting [20]) was over 100 µM.

For the compound `Nc1nc2ncc(CNc3ccc(C(=O)N[C@@H](CCC(=O)O)C(=O)O)cc3)nc2c(=O)[nH]1.O.O` [Compound 8, L-folic acid dihydrate, reference compound], in [5], the “toxicity in PBMC (in words)” value is reported as “exhibited toxicity” and the CC50 came out at 25.7 µM. Also, the “anti-HIV-1 activity (in words)” value in the data set with HIV-1LAI is recorded as “did not show any anti-HIV-1 activity”. Also, in the data set with HIV-1LAI (setting [21]), the EC50 is over 100 µM and the EC90 was over 100 µM.

The compound `O=C([O-])CC[C@H](NC(=O)c1ccc(NCc2cnc3nc([N-]c4nc5ncc(CNc6ccc(C(=O)N[C@@H](CCC(=O)[O-])C(=O)[O-])cc6)nc5c(=O)[nH]4)[nH]c(=O)c3n2)cc1)C(=O)[O-].[Na+].[Na+].[Na+].[Na+].[Na+]` [Compound 10, Pentasodium (2S,2′S)-2,2′-{azanidediylbis[(4-{[(4-oxo-3,4-dihydropteridine-2,6-diyl)methyl]amino}benzoyl)amino]}dipentanedioate×3 H2O×2.5 acetone] had a CC50 in data set [5] of over 100 µM. Moreover, the “anti-HIV-1 activity (in words)” value in the data set on HIV-1LAI was “did not show any anti-HIV-1 activity”. This compound also gave an EC90 in the data set on HIV-1LAI (setting [19]) of over 100 µM. For the same compound, in the data set with HIV-1LAI (setting [20]), the EC50 was over 100 µM.

`Nc1nc2ncc(CNc3ccc(C(=O)N[C@@H](CCC(=O)[O-])C(=O)[O-])cc3)nc2c(=O)[nH]1.O.O.O.O.[Na+].[Na+]` [Compound 11, Disodium (2S)-2-(pteroylamino)pentanedioate×4 H2O] yielded a CC50 in data set [4] of over 100 µM. The “anti-HIV-1 activity (in words)” value in the data set with HIV-1LAI was “did not show any anti-HIV-1 activity”. In the data set with HIV-1LAI (setting [19]), this compound displayed an EC90 of over 100 µM. Besides, the EC50 in the data set with HIV-1LAI (setting [20]) was over 100 µM.

On to `Cl.O=C(CNC12CC3CC(CC(C3)C1)C2)c1ccc(F)cc1` [Compound 12, 1-(4-Fluorophenyl)-2-(tricyclo[3.3.1.1^3,7]dec-1-ylamino) ethanone hydrochloride×0.11 H2O], for which the CC50 in data set [6] is over 100 µg/mL; in [7], 49 µg/mL; in data set [4] it was over 100 µM; in data set [10], 35 µg/mL. The “inhibition of virus replication (in words)” value in data set [1] (SARS coronavirus) was “did not inhibit”; in data set [8], “inactive”; with B/Florida/4/2006, “inactive”; in [11], “inactive”; in [12] (A/Vietnam/1203/2004) it was “inactive”; in data set [13], “did not inhibit”. In addition, the “inhibition of virus replication (in words)” value in [14] (A/duck/Minnesota/1525/81 (H5N1), amantadine-susceptible) is “did inhibit”. The EC50 in data set [1] (Urbani, Vero 76 (130 CCID50), neutral red) is 92 µg/mL; in [8], over 36 µg/mL; in the data set on HIV-1LAI (setting [20]), over 100 µM; in the data set with B/Florida/4/2006, over 50 µg/mL; in data set [11] it was over 37 µg/mL; in data set [12] (A/Vietnam/1203/2004, MDCK (≤42 CCID50), neutral red) it was 50 µg/mL. The EC50 in [13] is over 49 µg/mL; in data set [14] (A/duck/Minnesota/1525/81, MDCK (25 CCID50), neutral red) it was 0.95 µg/mL; in [14] (low pathogenic H5N1 A/duck/Minnesota/1525/81), 2920 nM. Besides, the “activity of DMSO stock solution during multiple FRCs (in words)” value in [9] was “did not lose activity”. Besides, the “anti-HIV-1 activity (in words)” value in the data set with HIV-1LAI is “did not show any anti-HIV-1 activity”. In addition, in the data set with HIV-1LAI (setting [19]), the EC90 is over 100 µM.

In “in vitro [15]”, `CCC(CC)O[C@@H]1C=C(C(=O)O)C[C@H](N)[C@H]1NC(C)=O` [oseltamivir carboxylate, (3R,4R,5S)-4-(acetylamino)-5-amino-3-(pentan-3-yloxy)cyclohex-1-ene-1-carboxylic acid, reference compound] yielded a CC50 of over 10 µg/mL. The same compound gave a concentration for a half-maximal effect (EC50) in data set [14] (Influenza A virus, H5N1, MDCK) of 0.061 µg/mL.

Turning to `NC(=O)c1ncn([C@@H]2O[C@H](CO)[C@@H](O)[C@H]2O)n1` [ribavirin, 1-β-D-ribofuranosyl-1H-1,2,4-triazole-3-carboxamide, reference compound], the EC50 in [8] (Influenza A virus, H1N1, MDCK) amounted to 4.2 µg/mL (≈ 17.2 µM); in the data set with B/Florida/4/2006 (Influenza B virus, MDCK) it was 3.9 µg/mL (≈ 16 µM); in data set [11] (Influenza A virus, H3N2, MDCK), 2.9 µg/mL (≈ 11.9 µM); in [12] (Influenza A virus, H5N1, MDCK), 9.4 µg/mL (≈ 38.5 µM); in data set [13] (Human respirovirus 3, MA104), 14 µg/mL (≈ 57.3 µM); in [14] (Influenza A virus, H5N1, MDCK), 5.4 µg/mL. Further, the CC50 in the data set “in vitro [15]” was over 100 µg/mL; in “in vitro [16]”, 190 µg/mL (≈ 778 µM).

For “[1,4-Bis(4-hydroxyphenyl)butane-1,4-dione – 1,4-bis(4-methoxyphenyl)butane-1,4-dione (7) – (2S,2′S)-2,2′-{[(tricyclo[3.3.1.1^3,7]dec-1-ylamino)methanediyl] bis(pteroylimino)}dipentanedioic acid (0.2:1:1)]×3 H2O×0.4 acetone [Compound 9]”, the “antiretroviral activity after first FRC (in words)” value in the data set on HIV-1LAI (DMSO stock after first FRC) is listed as “seriously affected”. Moreover, in the data set on HIV-1LAI (DMSO stock after second FRC), the “antiretroviral activity after second FRC (in words)” value was “completely lost”. Besides, the “anti-HIV-1 activity (in words)” value in the data set on HIV-1LAI is given as “effective inhibitor”. In addition, the EC90 with HIV-1LAI (experiment 1, DMSO stock after first FRC) was 57.7 µM; with HIV-1LAI (setting [22]), over 100 µM; in the data set on HIV-1LAI (setting [19]), 34.2 µM; in the data set with HIV-1LAI (setting [21]), 34.8 µM. Further, the EC50 is 32.7 µM in the data set on HIV-1LAI (experiment 1, DMSO stock after first freezing-(re-thawing) cycle (FRC)); over 100 µM with HIV-1LAI (setting [22]); 3.5 µM in the data set with HIV-1LAI (setting [20]); 10.8 µM in the data set on HIV-1LAI (setting [21]).
